# Data from paper PMC5365060, “Construction of an octosyl acid backbone catalyzed by a radical S-adenosylmethionine enzyme and a phosphatase in the biosynthesis of high-carbon sugar nucleoside antibiotics” (Chemical Science, 2016).
# Target: T1, PolH (Streptomyces aureochromogenes, UniProt J7G018)
# T1 construct: pET28a, N-terminal His6 tag, E. coli; anaerobically purified, reconstituted [4Fe-4S]; motif C225XXXC229XXC232
# Assay: HPLC time course of OAP and […]'-deoxyadenosine
# Type: biochemical
# Conditions: 3'-EUMP, sodium dithionite, anaerobic; SAM consumed as co-substrate
# T1 sequence (J7G018 entry or part of it): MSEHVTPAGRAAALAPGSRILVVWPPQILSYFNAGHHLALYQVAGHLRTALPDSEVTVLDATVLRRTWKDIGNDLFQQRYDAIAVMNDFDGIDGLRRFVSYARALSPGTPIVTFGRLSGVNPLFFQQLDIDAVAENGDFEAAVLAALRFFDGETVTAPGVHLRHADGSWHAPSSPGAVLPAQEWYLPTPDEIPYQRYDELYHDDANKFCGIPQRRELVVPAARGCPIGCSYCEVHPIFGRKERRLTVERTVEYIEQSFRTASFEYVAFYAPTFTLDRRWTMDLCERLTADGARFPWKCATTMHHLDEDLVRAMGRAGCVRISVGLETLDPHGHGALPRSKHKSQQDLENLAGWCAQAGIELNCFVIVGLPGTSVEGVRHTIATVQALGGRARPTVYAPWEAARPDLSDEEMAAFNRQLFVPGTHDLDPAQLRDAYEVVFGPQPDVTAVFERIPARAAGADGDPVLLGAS
structure (smiles),measurement,value
C[S+](CC[C@H](N)C(=O)O)C[C@H]1O[C@@H](n2cnc3c(N)ncnc32)[C@H](O)[C@@H]1O (stereo partly shown) [SAM],HPLC time course of OAP and 5'-deoxyadenosine,indicating that SAM was being used as a co-substrate
